BindingDB's records for doi:10.1016/0922-4106(95)90037-3 (Universit&Eacute, 1995)
Values joined by “and” are separate entries in the source; they are usually repeats but may differ in a detail not shown here. Equal entries are not always repeated. Non-standard residues stand in square brackets, D forms with d. Residues, ends and D or L forms follow the SMILES beside them. ξ: configuration not given here. Ile(3ξ) = CCC(C)[C@H](N)C(=O)O

These compounds were tested against T1, Pituitary adenylate cyclase-activating polypeptide (Rattus norvegicus, UniProt P13589).
T1 sequence (P13589 whole entry): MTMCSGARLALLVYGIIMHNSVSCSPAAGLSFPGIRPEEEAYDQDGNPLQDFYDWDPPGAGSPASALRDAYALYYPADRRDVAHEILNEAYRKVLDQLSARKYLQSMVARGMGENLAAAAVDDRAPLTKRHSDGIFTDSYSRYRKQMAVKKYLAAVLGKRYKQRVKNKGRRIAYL

Question: Which Ki does the source give for `CSCC[C@H](NC(=O)[C@H](CCC(N)=O)NC(=O)[C@H](CCCCN)NC(=O)[C@H](CCCNC(=N)N)NC(=O)[C@H](Cc1ccc(O)cc1)NC(=O)[C@H](CCCNC(=N)N)NC(=O)[C@H](CO)NC(=O)[C@H](Cc1ccc(O)cc1)NC(=O)[C@H](CO)NC(=O)[C@H](CC(=O)O)NC(=O)[C@@H](NC(=O)[C@@H](N)Cc1ccccc1)[C@@H](C)O)C(=O)N[C@@H](C)C(=O)N[C@H](C(=O)N[C@@H](CCCCN)C(=O)N[C@@H](CCCCN)C(=O)N[C@@H](Cc1ccc(O)cc1)C(=O)N[C@@H](CC(C)C)C(=O)N[C@@H](C)C(=O)N[C@@H](C)C(=O)N[C@H](C(=O)N[C@@H](CC(C)C)C(=O)NCC(=O)N[C@@H](CCCCN)C(=O)N[C@@H](CCCNC(=N)N)C(=O)N[C@@H](Cc1ccc(O)cc1)C(=O)N[C@@H](CCCCN)C(=O)N[C@@H](CCC(N)=O)C(=O)N[C@@H](CCCNC(=N)N)C(=O)N[C@H](C(=O)N[C@@H](CCCCN)C(=O)N[C@@H](CC(N)=O)C(=O)N[C@@H](CCCCN)C(N)=O)C(C)C)C(C)C)C(C)C` here?
Answer: 8 nM and 10 nM

Question: Which Ki does the source give for `CC[C@H](C)[C@H](NC(=O)[C@H](CO)NC(=O)[C@H](CC(N)=O)NC(=O)[C@H](CC(C)C)NC(=O)[C@H](Cc1ccc(O)cc1)NC(=O)[C@H](CCCCN)NC(=O)[C@H](CCCCN)NC(=O)[C@@H](NC(=O)[C@H](C)NC(=O)[C@H](CCSC)NC(=O)[C@H](CCC(N)=O)NC(=O)[C@H](CCCCN)NC(=O)[C@H](CCCN=C(N)N)NC(=O)[C@H](CC(C)C)NC(=O)[C@H](CCCN=C(N)N)NC(=O)[C@@H](NC(=O)[C@H](Cc1ccc(O)cc1)NC(=O)[C@H](CC(N)=O)NC(=O)[C@H](CC(=O)O)NC(=O)[C@@H](NC(=O)[C@H](Cc1ccccc1)NC(=O)[C@@H](NC(=O)[C@H](C)NC(=O)[C@H](CC(=O)O)NC(=O)[C@H](CO)NC(=O)[C@@H](N)Cc1cnc[nH]1)C(C)C)[C@@H](C)O)[C@@H](C)O)C(C)C)C(=O)N[C@@H](CC(C)C)C(=O)N[C@@H](CC(N)=O)C(=O)O` [CAS_37221-79-7] here?
Answer: 80 nM

Question: Which Ki does the source give for `CC[C@H](C)[C@H](NC(=O)CNC(=O)[C@H](CCC(=O)O)NC(=O)[C@H](CO)NC(=O)[C@@H](N)Cc1cnc[nH]1)C(=O)N[C@@H](Cc1ccccc1)C(=O)N[C@H](C(=O)N[C@@H](CC(=O)O)C(=O)N[C@@H](CO)C(=O)N[C@@H](Cc1ccc(O)cc1)C(=O)N[C@@H](CO)C(=O)N[C@@H](CCCNC(=N)N)C(=O)N[C@@H](Cc1ccc(O)cc1)C(=O)N[C@@H](CCCNC(=N)N)C(=O)N[C@@H](CCCCN)C(=O)N[C@@H](CCC(N)=O)C(=O)N[C@@H](CCSC)C(=O)N[C@@H](C)C(=O)N[C@H](C(=O)N[C@@H](CCCCN)C(=O)N[C@@H](CCCCN)C(=O)N[C@@H](Cc1ccc(O)cc1)C(=O)N[C@@H](CC(C)C)C(=O)N[C@@H](C)C(=O)N[C@@H](C)C(=O)N[C@H](C(=O)N[C@@H](CC(C)C)C(N)=O)C(C)C)C(C)C)[C@@H](C)O` [PACAP(1-27)] here?
Answer: 0.08 nM

Question: With `[C][C][C]([C])[C@H]([N]C(=O)[C][N]C(=O)[C@H]([C][C]C([O])=O)[N]C(=O)[C@@H]([N])[C][O])C(=O)[N][C@@H]([C]c1ccccc1)C(=O)[N][C@H](C(=O)[N][C@@H]([C]C([O])=O)C(=O)[N][C@@H]([C][O])C(=O)[N][C@@H]([C]c1ccc([O])cc1)C(=O)[N][C@@H]([C][O])C(=O)[N][C@@H]([C][C][C]N=C([N])[N])C(=O)[N][C@@H]([C]c1ccc([O])cc1)C(=O)[N][C@@H]([C][C][C]N=C([N])[N])C(=O)[N][C@@H]([C][C][C][C][N])C(=O)[N][C@@H]([C][C]C([N])=O)C(=O)[N][C@@H]([C][C]S[C])C(=O)[N][C@@H]([C])C(=O)[N][C@@H]([C]([C])[C])C(=O)[N][C@@H]([C][C][C][C][N])C(=O)[N][C@@H]([C][C][C][C][N])C(=O)[N][C@@H]([C]c1ccc([O])cc1)C(=O)[N][C@@H]([C][C]([C])[C])C(=O)[N][C@@H]([C])C(=O)[N][C@@H]([C])C(=O)[N][C@@H]([C]([C])[C])C(=O)[N][C@@H]([C][C]([C])[C])C([N])=O)[C@@H]([C])[O]` [PACAP(2-27)] as the compound, how does the Ki read?
Answer: 5 nM

Question: How did the Ki turn out when `CCC(C)[C@H](NC(=O)CNC(=O)[C@H](CC(=O)O)NC(=O)[C@@H](N)CO)C(=O)N[C@@H](Cc1ccccc1)C(=O)N[C@H](C(=O)N[C@@H](CC(=O)O)C(=O)N[C@@H](CO)C(=O)N[C@@H](Cc1ccc(O)cc1)C(=O)N[C@@H](CO)C(=O)N[C@@H](CCCN=C(N)N)C(=O)N[C@@H](Cc1ccc(O)cc1)C(=O)N[C@@H](CCCN=C(N)N)C(=O)N[C@@H](CCCCN)C(=O)N[C@@H](CCC(N)=O)C(=O)N[C@@H](CCSC)C(=O)N[C@@H](C)C(=O)N[C@H](C(=O)N[C@@H](CCCCN)C(=O)N[C@@H](CCCCN)C(=O)N[C@@H](Cc1ccc(O)cc1)C(=O)N[C@@H](CC(C)C)C(=O)N[C@@H](C)C(=O)N[C@@H](C)C(=O)N[C@H](C(=O)N[C@@H](CC(C)C)C(=O)NCC(=O)N[C@@H](CCCCN)C(=O)N[C@@H](CCCN=C(N)N)C(=O)N[C@@H](Cc1ccc(O)cc1)C(=O)N[C@@H](CCCCN)C(=O)N[C@@H](CCC(N)=O)C(=O)N[C@@H](CCCN=C(N)N)C(=O)N[C@H](C(=O)N[C@@H](CCCCN)C(=O)N[C@@H](CC(N)=O)C(=O)N[C@@H](CCCCN)C(N)=O)C(C)C)C(C)C)C(C)C)[C@@H](C)O` (stereo partly drawn) [PACAP(2-38)] (H-SDG[Ile(3ξ)]FTDSYSRYRKQMAVKKYLAAVLGKRYKQRVKNK-NH2) was run?
Answer: 5 nM and 8 nM

Question: With `CCC(C)[C@H](NC(=O)CNC(=O)[C@@H](N)CC(=O)O)C(=O)N[C@@H](Cc1ccccc1)C(=O)N[C@H](C(=O)N[C@@H](CC(=O)O)C(=O)N[C@@H](CO)C(=O)N[C@@H](Cc1ccc(O)cc1)C(=O)N[C@@H](CO)C(=O)N[C@@H](CCCN=C(N)N)C(=O)N[C@@H](Cc1ccc(O)cc1)C(=O)N[C@@H](CCCN=C(N)N)C(=O)N[C@@H](CCCCN)C(=O)N[C@@H](CCC(N)=O)C(=O)N[C@@H](CCSC)C(=O)N[C@@H](C)C(=O)N[C@H](C(=O)N[C@@H](CCCCN)C(=O)N[C@@H](CCCCN)C(=O)N[C@@H](Cc1ccc(O)cc1)C(=O)N[C@@H](CC(C)C)C(=O)N[C@@H](C)C(=O)N[C@@H](C)C(=O)N[C@H](C(=O)N[C@@H](CC(C)C)C(N)=O)C(C)C)C(C)C)[C@@H](C)O` (stereo partly drawn) [PACAP(3-27)] (H-DG[Ile(3ξ)]FTDSYSRYRKQMAVKKYLAAVL-NH2) as the compound, how does the Ki read?
Answer: 500 nM and 400 nM

Question: With `CCC(C)[C@H](NC(=O)CNC(=O)[C@@H](N)CC(=O)O)C(=O)N[C@@H](Cc1ccccc1)C(=O)N[C@H](C(=O)N[C@@H](CC(=O)O)C(=O)N[C@@H](CO)C(=O)N[C@@H](Cc1ccc(O)cc1)C(=O)N[C@@H](CO)C(=O)N[C@@H](CCCN=C(N)N)C(=O)N[C@@H](Cc1ccc(O)cc1)C(=O)N[C@@H](CCCN=C(N)N)C(=O)N[C@@H](CCCCN)C(=O)N[C@@H](CCC(N)=O)C(=O)N[C@@H](CCSC)C(=O)N[C@@H](C)C(=O)N[C@H](C(=O)N[C@@H](CCCCN)C(=O)N[C@@H](CCCCN)C(=O)N[C@@H](Cc1ccc(O)cc1)C(=O)N[C@@H](CC(C)C)C(=O)N[C@@H](C)C(=O)N[C@@H](C)C(=O)N[C@H](C(=O)N[C@@H](CC(C)C)C(=O)NCC(=O)N[C@@H](CCCCN)C(=O)N[C@@H](CCCN=C(N)N)C(=O)N[C@@H](Cc1ccc(O)cc1)C(=O)N[C@@H](CCCCN)C(=O)N[C@@H](CCC(N)=O)C(=O)N[C@@H](CCCN=C(N)N)C(=O)N[C@H](C(=O)N[C@@H](CCCCN)C(=O)N[C@@H](CC(N)=O)C(=O)N[C@@H](CCCCN)C(N)=O)C(C)C)C(C)C)C(C)C)[C@@H](C)O` (stereo partly drawn) [PACAP(3-38)] (H-DG[Ile(3ξ)]FTDSYSRYRKQMAVKKYLAAVLGKRYKQRVKNK-NH2) as the compound, how does the Ki read?
Answer: 300 nM

Question: For `CC[C@H](C)[C@H](NC(=O)CNC(=O)[C@H](CC(=O)O)NC(=O)[C@H](CO)NC(=O)[C@@H](N)Cc1cnc[nH]1)C(=O)N[C@@H](Cc1ccccc1)C(=O)N[C@H](C(=O)N[C@@H](CC(=O)O)C(=O)N[C@@H](CO)C(=O)N[C@@H](Cc1ccc(O)cc1)C(=O)N[C@@H](CO)C(=O)N[C@@H](CCCNC(=N)N)C(=O)N[C@@H](Cc1ccc(O)cc1)C(=O)N[C@@H](CCCNC(=N)N)C(=O)N[C@@H](CCCCN)C(=O)N[C@@H](CCC(N)=O)C(=O)N[C@@H](CCSC)C(=O)N[C@@H](C)C(=O)N[C@H](C(=O)N[C@@H](CCCCN)C(=O)N[C@@H](CCCCN)C(=O)N[C@@H](Cc1ccc(O)cc1)C(=O)N[C@@H](CC(C)C)C(=O)N[C@@H](C)C(=O)N[C@@H](C)C(=O)N[C@H](C(=O)N[C@@H](CC(C)C)C(=O)NCC(=O)N[C@@H](CCCCN)C(=O)N[C@@H](CCCNC(=N)N)C(=O)N[C@@H](Cc1ccc(O)cc1)C(=O)N[C@@H](CCCCN)C(=O)N[C@@H](CCC(N)=O)C(=O)N[C@@H](CCCNC(=N)N)C(=O)N[C@H](C(=O)N[C@@H](CCCCN)C(=O)N[C@@H](CC(N)=O)C(=O)N[C@@H](CCCCN)C(N)=O)C(C)C)C(C)C)C(C)C)[C@@H](C)O` [PACAP], which Ki is on record?
Answer: 0.1 nM
